This is an account of results in US20260083131A1, “AN HERBICIDAL COMBINATION, COMPOSITION AND METHOD OF CONTROLLING WEEDS USING THE SAME” (priority 2022, published 2026).

The subject of test [1] is Viola arvensis, Bromus spp., Lolium spp., Agropyron repens and Urtica urens. The note with it: reported by Hoechst et al., 1991; cited from earlier work.
In test [2] the test system is Borreria verticillata. As to the kind of experiment: Greenhouse trial, post-emergence herbicidal activity on Borreria verticillata. Type of test: in vivo. As for the experimental part:
(§1) The expected efficacy of a combination of L-glufosinate ammonium and the other herbicides was calculated using the well-established Colby method. Any difference between the observed and “expected” efficacy could be attributed to synergy between the two compounds.
(§2) In the Colby method, the expected (or predicted) response of a combination of herbicides is calculated by taking the product of the observed response for each individual component of the combination when applied alone, divided by 100, and subtracting this value from the sum of the observed response for each component when applied alone. An unexpected enhancement in efficacy of the combination is then determined by comparing the observed response of the combination to the expected (or predicted) response as calculated from the observed response of each individual component alone. If the observed response of the combination is greater than the expected (or predicted) response, or stated conversely, if the difference between the observed and expected response is greater than zero, then the combination is said to be synergistic or unexpectedly effective (Colby, S. R., Weeds, 1967(15), p. 20-22). The Colby method requires only a single dose of each herbicide applied alone and the mixture of both doses. The formula used to calculate the expected efficacy (EE) which was compared with the observed efficacy (OE) to determine the efficacy of the present disclosure is explained hereinbelow:
(§3) Methodology: Greenhouse trials were conducted to evaluate the efficacy of the combination comprising L-glufosinate ammonium and imidazolinone herbicides—imazethapyr, imazamox, imazapic and imazapic+imazapyr—on weeds Borreria verticilata, Eleusine indica, Brachiaria decumbens, Spermacoce latifolia and Glycine max.
(§4) The soil used was sandy clay loam—sand: 68.0%; silt: 8.0%; clay: 24.0%.
(§5) All treatments were in 3 replications per treatment with a spray volume of about 150 L/ha.
The percentage efficacy was calculated after 3, 7, 14, 21, 28 and 35 days of applications (DAA). The target weed was Borreria verticillata, and the concentration of the herbicide and the results are recorded in Table 1.
The percentage efficacy was calculated after 3 days of applications (DAA). The target weed was Borreria verticillata, and the concentration of the herbicide and the results are recorded in Table 2.
The percentage efficacy was calculated after 3, 7, 14, 21, 28 and 35 days of applications (DAA). The target weed was Borreria verticillata, and the concentration of the herbicide and the results are recorded Table 7.

Test [3] concerns weedy Glycine max. As to the kind of experiment: Greenhouse trial, post-emergence herbicidal activity on Glycine max. It is filed as in vivo. The note with it: Table 6. As for the experimental part: as §1, §2, §3, §4, §5
The percentage efficacy was calculated after 14, 21, 28, 35 days of applications (DAA). The target weed was weedy Glycine max, and the concentration of the herbicide and the results are recorded in Table 6.

For test [4], the system named is weedy Eleusine indica. As to the kind of experiment: Greenhouse trial, post-emergence herbicidal activity on Eleusine indica. Type of test: in vivo. The note with it: Table 4. As for the experimental part: as §1, §2, §3, §4, §5
The percentage efficacy was calculated after 7, 14, 21, 28, 35 days of applications (DAA). The target weed was weedy Eleusine indica, and the concentration of the herbicide and the results are recorded in Table 4.

In test [5] the test system is Spermacoce latifolia. As to the kind of experiment: Greenhouse trial, post-emergence herbicidal activity on Spermacoce latifolia. The note with it: Table 5. Type of test: in vivo. Here is the method:
as §1, §2, §3, §4, §5
The percentage efficacy was calculated after 14, 21, 28, 35 days of applications (DAA). The target weed was Spermacoce latifolia, and the concentration of the herbicide and the results are recorded Table 5.

For test [6], the system named is weedy Brachiaria decumbens. As to the kind of experiment: Greenhouse trial, post-emergence herbicidal activity on Brachiaria decumbens. Type of test: in vivo. The note with it: Table 3. As for the experimental part:
as §1, §2, §3, §4, §5
The percentage efficacy was calculated after 7, 14, 21, 28, 35 days of applications (DAA). The target weed was weedy Brachiaria decumbens, and the concentration of the herbicide and the results are recorded in Table 3.

For `CP(=O)(O)CCC(N)C(=O)O` (racemic) [glufosinate, DL-homoalanin-4-yl(methyl)phosphinic acid], the “control of weed species Viola arvensis, Bromus spp., Lolium spp., Agropyron repens and Urtica urens” value in test [1] is reported as “either not combated, or only weakly combated”.
On to `COCc1cnc(C2=NC(C)(C(C)C)C(=O)N2)c(C(=O)O)c1` (stereo not drawn) [Imazamox, imazamox], for which the “Observed efficacy (%) of Imazamox (21 g a.i./ha)” value in test [2] (3 DAA, 21 g a.i./ha, Table 2) worked out at 10%.
Take `Cc1cnc(C2=NC(=O)C(C)(C(C)C)N2)c(C(=O)O)c1` (stereo not drawn) [Imazapic, imazapic]: the “Observed efficacy (%) of Imazapic (59 g a.i./ha)” value in test [2] (3 DAA, Table 1) is recorded as 10%; in test [2] (7 DAA, Table 1), 20%; in test [2] (14 DAA, Table 1) it was 35%; in test [2] (21 DAA, Table 1) it was 30%; in test [2] (28 DAA, Table 1), 40%; in test [2] (35 DAA, Table 1) it was 60%.
As to `CCc1cnc(C2=NC(C)(C(C)C)C(=O)N2)c(C(=O)O)c1` (stereo not drawn) [Imazethapyr, imazethapyr], the “Observed efficacy (%) of Imazethapyr, (75 g a.i./ha)” value (shortened to “Observed efficacy (%) of Imazethapyr”) was determined as 10% in test [3] (14 DAA); 20% in test [3] (21 DAA); 20% in test [3] (28 DAA); 15% in test [3] (35 DAA); 8.3% in test [4] (7 DAA); 12% in test [4] (14 DAA). Also, the “Observed efficacy (%) of Imazethapyr” value in test [4] (21 DAA) came to 12.7%; in test [4] (28 DAA), 12.7%; in test [4] (35 DAA), 10%; in test [5] (14 DAA) it was 30%; in test [5] (21 DAA) it was 36.7%; in test [5] (28 DAA) it was 30%. Further, the “Observed efficacy (%) of Imazethapyr” value in test [5] (35 DAA) turned out to be 26.7%; in test [6] (7 DAA) it was 10%; in test [6] (14 DAA), 10%; in test [6] (21 DAA), 15%; in test [6] (28 DAA), 10%; in test [6] (35 DAA), 5%.
Consider `CP(=O)(O)CC[C@H](N)C(=O)O.N` [L-glufosinate ammonium, ammonium (2S)-2-amino-4-(methylphosphinato)butyric acid], for which the “Observed efficacy (%) of L-glufosinate ammonium (Glufosinate-P-ammonium) (150 g a.i./ha)” value in test [2] (3 DAA, Table 1) turned out to be 50%; in test [2] (3 DAA, Table 2), 55%; in test [2] (3 DAA, Table 7), 50%; in test [2] (7 DAA, Table 1), 80%; in test [2] (7 DAA, Table 7), 80%; in test [2] (14 DAA, Table 1), 95%. Moreover, the “Observed efficacy (%) of L-glufosinate ammonium (Glufosinate-P-ammonium) (150 g a.i./ha)” value was 95% in test [2] (14 DAA, Table 7); 90% in test [2] (21 DAA, Table 1); 90% in test [2] (21 DAA, Table 7); 90% in test [2] (28 DAA, Table 1); 90% in test [2] (28 DAA, Table 7); 85% in test [2] (35 DAA, Table 1). Further, in test [2] (35 DAA, Table 7), the “Observed efficacy (%) of L-glufosinate ammonium (Glufosinate-P-ammonium) (150 g a.i./ha)” value amounted to 85%. Besides, the “Observed efficacy (%) of L-glufosinate ammonium, (150 g a.i./ha)” value is recorded as 60% in test [3] (14 DAA); 63.3% in test [3] (21 DAA); 63.3% in test [3] (28 DAA); 52.7% in test [3] (35 DAA); 43.3% in test [4] (7 DAA); 41.3% in test [4] (14 DAA). The “Observed efficacy (%) of L-glufosinate ammonium, (150 g a.i./ha)” value is 37.3% in test [4] (21 DAA); 28.3% in test [4] (28 DAA); 25.3% in test [4] (35 DAA); 56.7% in test [5] (14 DAA); 56.7% in test [5] (21 DAA); 58.3% in test [5] (28 DAA). For the same compound, the “Observed efficacy (%) of L-glufosinate ammonium, (150 g a.i./ha)” value in test [5] (35 DAA) is on record as 58.3%; in test [6] (7 DAA), 46%; in test [6] (14 DAA), 54.3%; in test [6] (21 DAA) it was 53.3%; in test [6] (28 DAA) it was 48.3%; in test [6] (35 DAA) it was 42%.
